The test system of assay [1] is human NP cells. In words: Real-time qPCR and western blotting of LPS- or IL-1-induced MMP-13, MMP-1, ADAMTS-4 and iNOS in human NP cell monolayers. It is filed as cell-based. The following applies: co-treatment MyD88i 100 μM, 24 hr. The procedure:
(§1) Human spine segments (T11/12 to S1) were received within 24 hours of death of donors from the Gift of Hope Organ and Tissue Donor Network (Elmhurst, Ill.), after obtaining consent from the families. Each of the lumbar segments underwent magnetic resonance imaging (MRI). Intact disc specimens (Thompsons grade 2 or 3) were removed and processed aseptically (Thompson et al., 1990; Kim et al., 2009). After dissection of the NP portion of discs either from human or bovine tails, NP cells were released by enzymatic digestion in Dulbecco's modified Eagle's medium [(DMEM)/Ham's F-12 (1:1)] culture medium with sequential treatments of 0.2% pronase and 0.025% collagenase P, as previously described (Kim et al.; Loeser et al., 2003). Alginate beads and monolayers were prepared for long-term (21 days) and short-term studies (1-2 days) as previously described by our group (Kim et al.; Im et al., 2003; Im et al., 2007b; Im et al., 2008; Li et al., 2008a).
(§2) For short-term monolayer cultures, isolated NP cells from either bovine tails or human spine discs were counted and plated onto 12-well plates at 8×10^5 cells/cm^2 as previously described (Im et al., 2003; Im et al., 2007b). Cells were stimulated with either IL-1 (10 ng/mL, NCI) or LPS (10 μg/mL, Sigma-Aldrich, St. Louis, Mont.) in the presence or absence of MyD88 peptide inhibitor (MyD88i; IMGENEX, San Diego, Calif.) at the concentration of 100 μM, in 1 mL per well of serum-free medium for 24 hours at 37° C. under 5% CO2. Supernatants were collected 24 hours after the initiation of each treatment and subjected to western blotting analyses for secreted matrix-degrading enzyme production. Cells were harvested and prepared for either cell lysates or total RNA extraction followed by real-time qPCR analyses, as previously described (Li et al., 2008b). 18s rRNA was used for normalization.
(§3) Total RNA was isolated from the cells using Trizol reagent (Invitrogen, Carlsbad, Calif.) following the instructions provided by the manufacturer. Reverse transcription was carried out with 1 μg total RNA using the ThermoScript™ RT-PCR system (Invitrogen, Carlsbad, Calif.) for first strand cDNA synthesis.
(§4) For real-time qPCR, cDNA was amplified using MyiQ Real-Time qPCR Detection System (Bio-Rad Hercules, Calif.). The synthesized cDNA was subjected to real-time qPCR utilizing the Bio-Rad iQTM SYBR Green supermix (Bio-Rad Hercules, Calif.). A threshold cycle (Ct value) was obtained from each amplification curve using iQ5 Optical System Software provided by the manufacturer (Bio-Rad Hercules, CA). Relative mRNA expression was determined using the ^ΔΔCT and calculated as follows: ^ΔΔCT=^ΔCT (gene of interest)−^ΔCT (endogenous control). Gene quantification was conducted for entire, individual treatment groups and expressed in terms of fold change from untreated control levels. Expression of 18s rRNA was used as the internal control. The deviations in samples represent 3 different donors in 3 separate experiments.
Cell and tissue lysates were prepared using modified RIPA buffer, as previously described (Li et al., 2008a; Li et al., 2008c). The total protein concentrations of cell lysates were determined by a bicinchoninic acid protein assay (Pierce, Rockford, Ill., USA). An equal amount of protein was resolved by 10% SDS-polyacrylamide gels (SDS-PAGE) and transferred to a nitrocellulose membrane for immunoblot analyses, as described previously (Im et al., 2007b). MMP-13 and MMP-1 antibodies were provided by courtesy of Dr. Gillian Murphy (Cambridge University, UK) Immunoreactivity was visualized using the ECL system (Amersham Biosciences, Piscataway, N.J., USA) and the Signal Visual Enhancer system (Pierce), which magnifies the signal.

Assay [2] concerns human NP cells. In words: Gelatin zymography of conditioned media from LPS- or IL-1-stimulated human NP cells. The settings on record: MyD88i 100 μM, 24 hr, p<0.01. Type of assay: cell-based. As for the experimental part:
as §2, with “Cells were harvested and prepared for either cell lysates or total RNA extraction followed by real-time qPCR analyses, as previously described (Li et al., 2008b). 18s rRNA was used for normalization.” left out
Gelatin zymography was then performed as previously described (Gupta et al., 2007). […] After development, gel images were captured and the clear bands were analyzed using “ImageJ” image analysis software (www.imagej.nih.gov), and were expressed in arbitrary optical density units. […]
Because MyD88i effectively suppresses expression and/or production of multiple cartilage degrading enzymes, TLR-2 and stress-associated genes after stimulation with either LPS or IL-1 (FIGS. 1˜4), the role of MyD88i in antagonizing catalytic enzyme activity was further analyzed by performing reverse zymography (FIG. 5). […]

In the next assay the test system is mouse lumbar spine discs. In words: Ex vivo intradiscal injection organ culture model, Safranin O-fast green histology for PG loss. The following applies: intradiscal injection 150 μM per disc, IL-1 100 ng/mL, 6 days organ culture. The procedure: Lumbar spine segments from deceased mice were dissected under sterile conditions within 12 hrs after sacrifice at the Rush University animal facility for ex vivo organ culture, as previously described (Chiba et al., 1998). The requirement for the pre-treatment of MyD88 has been previously described (Ahmad et al., 2007). Therefore, intradiscal pre-injection of MyD88i ([…]) en bloc was performed using a 30-gauge needle (30 G, 1.50 μL volume). Injected discs were then separated and incubated in DMEM/Ham's F-12 medium supplemented with 1% mini-ITS. After 24 hrs, the MyD88i pre-injected discs were challenged with either IL-1 (100 ng/mL) or LPS (10 μg/mL) and further incubated for 6 days. Harvested discs were fixed in 4% paraformaldehyde and then decalcified in EDTA, which was changed every 5 days. The decalcified discs were paraffin embedded. Serial disc sections of exactly 5-μm thickness were obtained to prepare slides. Safranin O-fast green staining was performed to assess general morphology and the loss of PG in disc ground substance.
Harvested discs were fixed in 4% paraformaldehyde and decalcified in EDTA, which was changed every 5 days. The decalcified discs were paraffin embedded. Serial disc sections of exactly 5-μm thickness were obtained to prepare slides. […]

Another assay deals with bovine NP cells. Put plainly: Real-time qPCR of LPS- or IL-1-induced catabolic genes and TLR-2 in bovine NP cell monolayers. Type of assay: cell-based. As for the experimental part: as §1, §2, §3, §4
Therefore, NP cells were treated with MyD88i (100 μM), LPS or IL-1, individually, or combinations of LPS and MyD88i or IL-1 and MyD88i for 24 hours. Resulting cellular responses were then analyzed for alterations in gene expression and/or secreted protein levels. Our data reveal the significant upregulation of collagenase (MMP-13) and aggrecanases (ADAMTS-4, ADAMTS-5) after stimulation with either LPS or IL-1 compared to control (untreated) in bovine NP cells (FIGS. 1A˜C).
On the technique in general: Quantitative PCR measures a nucleic acid by following its amplification.

The mark [3] stands for this setting: MyD88i 100 μM, IL-1 10 ng/mL, 24 hr, qPCR, p<0.05.
Where [4] appears, read: MyD88i 100 μM, LPS 10 μg/mL, 24 hr, qPCR, p<0.01.

DRQIKIWFQNRRMKWKKRDVLPGT [MyD88i]: the “IL-1-induced collagenases MMP-13 and MMP-1, mRNA and protein levels” value in the assay with human NP cells [1] (IL-1 10 ng/mL, p<0.05) is on record as “significant decreases”. In addition, in the assay on human NP cells [1] (IL-1 10 ng/mL, qPCR, p<0.05), the “induction of ADAMTS-4 expression by IL-1” value is reported as “significantly reduced”. Besides, the “IL-1-induced iNOS gene levels” value in the assay with human NP cells [1] (IL-1 10 ng/mL, qPCR, p<0.05 vs IL-1 alone) was “significant suppression”. In addition, the “LPS-induced collagenases MMP-13 and MMP-1, mRNA and protein levels” value in the assay with human NP cells [1] (LPS 10 μg/mL, p<0.01) is listed as “significant decreases”. In the assay with human NP cells [1] (LPS 10 μg/mL, qPCR, p<0.01), the “induction of ADAMTS-4 expression by LPS” value was “significantly reduced”. Also, the “LPS-induced iNOS gene levels” value with human NP cells [1] (LPS 10 μg/mL, qPCR, p<0.01 vs LPS alone) was “significant suppression”. Further, the “IL-1-induced catalytic enzyme activity (gelatin zymography, densitometry)” value in the assay on human NP cells [2] (IL-1 10 ng/mL) is listed as “markedly suppressed”. For the same sequence, the “LPS-induced catalytic enzyme activity (gelatin zymography, densitometry)” value with human NP cells [2] (LPS 10 μg/mL) is “markedly suppressed”. Besides, in the assay with mouse lumbar spine discs, the “IL-1-induced PG loss in disc organ culture” value is “significantly attenuates”. In the assay on bovine NP cells (setting [3]), the “IL-1-induced upregulation of catabolic gene expression (MMP-13, ADAMTS-4, ADAMTS-5)” value is on record as “significantly suppresses” and the “IL-1-stimulated TLR-2 levels” value is given as “significant decrease”. In addition, in the assay with bovine NP cells (setting [4]), the “LPS-induced upregulation of catabolic gene expression (MMP-13, ADAMTS-4, ADAMTS-5)” value is “significantly suppresses” and the “LPS-stimulated TLR-2 levels” value was “significant decrease”. Besides, the “minimal dose demonstrating maximal effects” value in the assay with bovine NP cells (initial experiments, monolayer cultures, different concentrations of MyD88i) is 100 µM.

Values taken from patent US20130297023A1, “Methods and Devices For Treating Intervertebral Disc Disease” (priority 2012, published 2013).
